Test results as given in US12655107B2 (The United States of America, as represented by the …, priority 2018, dated 2026).
Several values for one entry are separate records, joined by “and”; a condition that tells them apart may be missing. Equal values may be shown once.

How the values were obtained:
Top1 = biological target: T1, Top1 (Homo sapiens, UniProt P11387); experiment: Top1-mediated DNA cleavage assay; assay type: biochemical; details: for Top1 cleavage: inhibition relative to 1 μM CPT, Table 6
T1 sequence (P11387 1-765): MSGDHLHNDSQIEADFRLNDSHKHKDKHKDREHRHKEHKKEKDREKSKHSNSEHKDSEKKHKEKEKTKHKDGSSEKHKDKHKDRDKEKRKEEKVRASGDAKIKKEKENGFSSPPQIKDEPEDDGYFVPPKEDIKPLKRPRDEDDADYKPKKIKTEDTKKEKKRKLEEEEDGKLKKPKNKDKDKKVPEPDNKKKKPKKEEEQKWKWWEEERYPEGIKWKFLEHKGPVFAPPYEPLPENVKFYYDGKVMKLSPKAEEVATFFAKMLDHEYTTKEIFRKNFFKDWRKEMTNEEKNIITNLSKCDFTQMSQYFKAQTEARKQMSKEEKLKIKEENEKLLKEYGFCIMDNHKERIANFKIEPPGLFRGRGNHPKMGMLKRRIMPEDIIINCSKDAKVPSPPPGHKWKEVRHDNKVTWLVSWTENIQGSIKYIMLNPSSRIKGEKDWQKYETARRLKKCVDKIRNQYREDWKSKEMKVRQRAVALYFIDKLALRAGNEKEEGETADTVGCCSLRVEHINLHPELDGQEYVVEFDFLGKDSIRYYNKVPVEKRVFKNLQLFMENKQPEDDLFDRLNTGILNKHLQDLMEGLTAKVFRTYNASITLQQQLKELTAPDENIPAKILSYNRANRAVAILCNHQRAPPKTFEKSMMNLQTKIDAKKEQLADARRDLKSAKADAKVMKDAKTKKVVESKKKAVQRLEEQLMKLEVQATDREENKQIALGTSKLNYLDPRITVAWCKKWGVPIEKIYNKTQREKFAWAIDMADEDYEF

Tdp1 = Tdp1 (Homo sapiens, UniProt Q9NUW8); experiment: Tdp1 inhibition gel-based assay; details: IC50 Tdp1 (μM), Table 6; replicate values listed in one cell
Sequence of Tdp1 (Q9NUW8 whole entry): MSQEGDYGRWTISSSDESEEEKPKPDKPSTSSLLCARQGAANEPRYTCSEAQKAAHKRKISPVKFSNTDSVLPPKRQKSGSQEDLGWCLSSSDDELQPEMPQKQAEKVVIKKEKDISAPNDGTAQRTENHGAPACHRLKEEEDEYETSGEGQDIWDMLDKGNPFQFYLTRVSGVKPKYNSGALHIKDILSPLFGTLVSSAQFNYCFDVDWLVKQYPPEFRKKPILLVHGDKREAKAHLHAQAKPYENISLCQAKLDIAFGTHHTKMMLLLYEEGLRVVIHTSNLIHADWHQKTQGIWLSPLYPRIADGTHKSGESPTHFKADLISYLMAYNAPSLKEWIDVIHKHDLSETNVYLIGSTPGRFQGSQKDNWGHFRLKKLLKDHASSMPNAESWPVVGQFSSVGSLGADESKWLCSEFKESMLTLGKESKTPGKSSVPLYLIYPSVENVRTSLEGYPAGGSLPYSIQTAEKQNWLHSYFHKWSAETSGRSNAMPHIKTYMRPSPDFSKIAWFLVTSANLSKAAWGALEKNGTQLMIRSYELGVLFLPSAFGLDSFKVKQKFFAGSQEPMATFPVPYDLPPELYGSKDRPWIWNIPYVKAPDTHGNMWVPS
Method: The indenoisoquinoline 10 was used as the positive control.
Gel-based assay. […] Gels were dried and exposed to a PhosphorImager screen (GE Healthcare). Gel images were scanned using a Typhoon FLA 9500 scanner (GE Healthcare), and densitometry analyses were performed using the ImageQuant software (GE Healthcare).

Row | SMILES | Top1 cleavage (Top1) | IC50 (Tdp1) | TOP1 inhibition (Top1; graded relative to CPT at 1 μM, Table 7)
1 | COc1cc2c(NCCCN3CCN(C)CC3)nc3c4cc5c(cc4ccc3c2cc1OC)OCO5 [NTD-312] | + (+ is 20-50%) | > 111 µM | –
2 | CN(C)CCn1c(=O)c2c(O)c(O)ccc2c2ccc3cc4c(cc3c21)OCO4 [TWL-218A] | +++ (+++ is 75-95%) | – | –
3 | COc1ccc2c(ccc3c4ccccc4c(=O)n(CCN(C)C)c23)c1 [TWL-9] | + (+ is 20-50%) | > 111 µM | –
4 | COc1cc2c[n+](CCCn3ccnc3)c3c4cc5c(cc4ccc3c2cc1OC)OCO5 [NTD-192] | – | 81.3 ± 14.5 µM | –
5 | COc1cc2ccc3c4ccc5c(c4c(=O)n(CCN(C)C)c3c2cc1OC)OCO5 [TWL-189] | + (+ is 20-50%) | > 111 µM | –
6 | CCC(CO)Nc1nc2c3cc4c(cc3ccc2c2cc(OC)c(OC)cc12)OCO4 (centres unmarked) [NTD-363] | + (+ is 20-50%) | – | –
7 | COc1cc2ccc3c4cc(OC)c(OC)cc4c(=O)n(CCN(C)C)c3c2cc1OC [TWL-48] | – | > 111 µM | –
8 | COc1cc2c(=O)n(CCN(C)P3(=O)OCCO3)c3c4cc5c(cc4ccc3c2cc1OC)OCO5 [Compound 57, 2,3-dimethoxy-12-(2-(methyl(2-oxido-1,3,2-dioxaphospholan-2-yl)amino)ethyl)-[1,3]dioxolo[4′,5′:4,5]benzo[1,2-c]phenanthridin-13(12H)-one] | – | – | ++ (++, between 50% and 75% activity)
9 | COc1ccc2c(=O)n(CCN(C)C)c3c4ccccc4ccc3c2c1 [TWL-17] | + (+ is 20-50%) | > 111 µM | –
10 | COc1cc2c(ccc3c4cc(OC)c(OC)cc4c(=O)n(CCN(C)C)c23)cc1O [TWL-125] | + (+ is 20-50%) | 65 µM and 50 µM | –
11 | COc1ccc2ccc3c4ccccc4c(=O)n(CCN(C)C)c3c2c1 [TWL-33] | + (+ is 20-50%) | > 111 µM | –
12 | COc1cc2c(NCCN3CCOCC3)nc3c4cc5c(cc4ccc3c2cc1OC)OCO5 [NTD-309] | + (n = 2) (+ is 20-50%) | > 111 µM | –
13 | COc1cc2ccc3c4cc(OC)c(OC)cc4c(=O)n(CCN(C)C)c3c2cc1O [TWL-131] | – | > 111 µM | –
14 | CN(C)CCn1c(=O)c2cc(O)ccc2c2ccc3ccccc3c21 [TWL-25A] | + (+ is 20-50%) | > 111 µM (2×) and 74.1 µM and 75.9 µM | –
15 | COc1cc2c(=O)n(CCN(C)C)c3c4ccccc4ccc3c2cc1OC [TWL-44] | + (+ is 20-50%) | > 111 µM | –
16 | COc1cc2c(cc1O)c(=O)n(CCN(C)C)c1c3cc4c(cc3ccc21)OCO4 [TWL-113] | + (+ is 20-50%) | > 111 µM (2×) and 65 µM | –
17 | CN(C)CCn1c(=O)c2c3c(ccc2c2ccc4ccccc4c21)OCO3 [TWL-185] | + (+ is 20-50%) | > 111 µM | –
18 | CCN(CC)CCNc1nc2c3cc4c(cc3ccc2c2cc(OC)c(OC)cc12)OCO4 [NTD-305] | + (+ is 20-50%) | > 111 µM | –
19 | COc1cc2c(=O)n(CCN(C)C)c3c4cc(O)c(O)cc4ccc3c2cc1OC [TWL-164] | ++ (++ is 50-75%) | > 111 µM | –
20 | CCN(CC)CC[n+]1cc2cc(OC)c(OC)cc2c2ccc3cc4c(cc3c21)OCO4 [NTD-195] | – | > 111 µM | –
21 | CN(C)CCn1c(=O)c2ccccc2c2ccc3cc4c(cc3c21)OCO4 [TWL-67] | + (+ is 20-50%) | > 111 µM | –
22 | CN(C)CCn1c(=O)c2cc3c(cc2c2ccc4cc5c(cc4c21)OCO5)OCO3 [TWL-37] | + (+ is 20-50%) | 27.6 ± 19 µM | –
23 | COc1cccc2c1ccc1c3ccccc3c(=O)n(CCN(C)C)c21 [TWL-26] | + (+ is 20-50%) | > 111 µM | –
24 | COc1cc2ccc3c4ccccc4c(=O)n(CCN(C)C)c3c2cc1OC [TWL-76H] | – | > 111 µM | –
25 | COc1cc2c(NCCN3CCCCC3)nc3c4cc5c(cc4ccc3c2cc1OC)OCO5 [NTD-313] | + (n = 2) (+ is 20-50%) | > 111 µM | –
26 | COc1cc2c(OCCCOC(=O)c3ccc(Br)cc3)nc3c4cc5c(cc4ccc3c2cc1OC)OCO5 [NTD-209] | + (+ is 20-50%) | > 111 µM | –

Row | SMILES | Top1 cleavage (Top1) | IC50 (Tdp1) | TOP1 inhibition (Top1; graded relative to CPT at 1 μM, Table 7)
27 | CN(C)CCn1c(=O)c2cc(O)c(O)cc2c2ccc3cc4c(cc3c21)OCO4 [TWL-170] | + (+ is 20-50%) | > 111 µM | –
28 | COc1cc2c(NCCN3CCNCC3)nc3c4cc5c(cc4ccc3c2cc1OC)OCO5 [NTD-311] | – | > 111 µM | –
29 | CN(C)CCn1c(=O)c2cc3c(cc2c2ccc4ccccc4c21)OCO3 [TWL-40] | + (+ is 20-50%) | 18.2 ± 1.15 µM | –
30 | COc1ccc2c(c1)c(=O)n(CCN(C)C)c1c3ccccc3ccc21 [TWL-25] | + (+ is 20-50%) | 49.4 ± 1.4 µM | –
31 | COc1cc2c(OCCCN3CCC3)nc3c4cc5c(cc4ccc3c2cc1OC)OCO5 [NTD-225] | 0 (0 is inactive) | 20.6 ± 4.46 µM | –
32 | COc1cc2c(=O)n(CCN(C)C)c3c4cc5c(cc4c(OC)cc3c2cc1OC)OCO5 [TWL-246] | ++ (++ is 50-75%) | – | –
33 | COc1cc2c(NCCCN(C)C)nc3c4cc5c(cc4ccc3c2cc1OC)OCO5 [NTD-301] | 0 (0 is inactive) | 38 µM | –
34 | CN(C)CCn1c(=O)c2c3c(ccc2c2ccc4cc5c(cc4c21)OCO5)OCO3 [TWL-191] | – | > 111 µM | –
35 | COc1cc2c(=O)n(CCN(C)C)c3c4cc5c(cc4ccc3c2cc1O)OCO5 [TWL-119] | + (+ is 20-50%) | > 111 µM | –
36 | COc1cc2c[n+](CCN(C)C)c3c4cc5c(cc4ccc3c2cc1OC)OCO5 [NTD-191] | – | 64.2 ± 23.9 µM | –
37 | CCN(CC)CCSc1nc2c3cc4c(cc3ccc2c2cc(OC)c(OC)cc12)OCO4 [NTD-404] | ++ (++ is 50-75%) | > 111 µM | –
38 | COc1cc2ccc3c4cc5c(cc4c(=O)n(CCN(C)C)c3c2cc1OC)OCO5 [TWL-107] | – | 67.6 µM | –
39 | COc1cc2c(NCCN)nc3c4cc5c(cc4ccc3c2cc1OC)OCO5 [NTD-325] | 0 (0 is inactive) | 72 µM and 107 µM | –
40 | CCOC(=O)COc1nc2c3cc4c(cc3ccc2c2cc(OC)c(OC)cc12)OCO4 [NTD-334] | – | > 111 µM | –
41 | COc1cc2c(N(C)C)nc3c4cc5c(cc4ccc3c2cc1OC)OCO5 [NTD-329] | – | > 111 µM | –
42 | COc1cc2c(NCCCn3ccnc3)nc3c4cc5c(cc4ccc3c2cc1OC)OCO5 [NTD-314] | + (+ is 20-50%) | > 111 µM | –
43 | CN(C)CCn1c(=O)c2ccccc2c2ccc3cc(Br)ccc3c21 [TWL-53] | – | > 111 µM | –
44 | COc1cc2c(SCCN(C)C)nc3c4cc5c(cc4ccc3c2cc1OC)OCO5 [NTD-403] | ++ (n = 2) (++ is 50-75%) | > 111 µM | –
45 | COc1cc2c(OCCCOC(=O)c3ccccc3)nc3c4cc5c(cc4ccc3c2cc1OC)OCO5 [NTD-208] | + (+ is 20-50%) | > 111 µM | –
46 | CCN1CCN(CCCOc2nc3c4cc5c(cc4ccc3c3cc(OC)c(OC)cc23)OCO5)CC1 [NTD-207] | + (+ is 20-50%) | > 111 µM | –
47 | COc1cc2c(NCCN3CCCC3)nc3c4cc5c(cc4ccc3c2cc1OC)OCO5 [NTD-307] | – | 56.2 µM | –
48 | CN(C)CCn1c(=O)c2ccccc2c2ccc3ccccc3c21 [TWL-5] | + (+ is 20-50%) | 75.9 µM and > 111 µM (2×) and 64.6 µM | –
49 | COc1cc2c(OCCCOC(=O)c3ccc(Cl)cc3)nc3c4cc5c(cc4ccc3c2cc1OC)OCO5 [NTD-210] | + (+ is 20-50%) | > 111 µM | –
50 | C=CCOc1nc2c3cc4c(cc3ccc2c2cc(OC)c(OC)cc12)OCO4 [NTD-332] | – | > 111 µM | –
51 | COc1ccc2c(c1O)c(=O)n(CCN(C)C)c1c3cc4c(cc3ccc21)OCO4 [TWL-211] | + (+ is 20-50%) | 11 µM and 30 µM and 72 µM | –
52 | COc1cc2c(OCCCN3CCN(C(C)=O)CC3)nc3c4cc5c(cc4ccc3c2cc1OC)OCO5 [NTD-205] | ++ (++ is 50-75%) | > 111 µM | –
